Patent publication US10800792B2, “Inhibitors of Bruton's tyrosine kinase and method of their use” (JANSSEN PHARMACEUTICA NV, priority 2015, dated 2020)

These molecules were tested against unphosphorylated-BTK kinase domain (UP-BTK), GST-tagged human BTK (389-659aa) (Homo sapiens (Human), UniProt Q06187) (assay: BTK kinase Lanthascreen binding assay). Conditions: Lanthascreen tracer competition, 60 minutes incubation; pIC50 = negative log of the IC50 in molar.
Procedure, shortened: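 Compound binding to the unphosphorylated kinase domain was monitored by displacement of a fluorescently labelled tracer in a Lanthascreen format. Potency is given as pIC50, the negative log of the molar IC50.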

unphosphorylated-BTK kinase domain (UP-BTK), GST-tagged human BTK (389-659aa), sequence (Q06187 389-659): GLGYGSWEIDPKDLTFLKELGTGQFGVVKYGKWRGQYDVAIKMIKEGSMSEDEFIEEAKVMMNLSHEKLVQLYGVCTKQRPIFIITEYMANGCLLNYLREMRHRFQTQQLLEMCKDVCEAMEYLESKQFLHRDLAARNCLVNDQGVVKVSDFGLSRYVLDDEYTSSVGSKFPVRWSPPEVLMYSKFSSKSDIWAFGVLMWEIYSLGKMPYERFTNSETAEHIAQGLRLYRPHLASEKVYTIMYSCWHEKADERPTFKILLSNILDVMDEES

BTK_I_binding pIC50	SMILES
8.2	C=CC(=O)N1CCC[C@@H](NC(=O)c2sc3nccc4c3c2NC(=O)N4c2cnc(OC3CCCC3)cc2C)C1 (single isomer, unassigned) [Example 768, (R)—N-(1-Acryloylpiperidin-3-yl)-5-(*S)-(6-(cyclopentyloxy)-4-methylpyridin-3-yl)-4-oxo-4,5-dihydro-3H-1-thia-3,5,8-triazaacenaphthylene-2-carboxamide]
7.0	Cc1cc(Oc2ccccc2)ccc1N1C(=O)Nc2c(C(=O)NC3CCCN(C#N)C3)sc3nccc1c23 (stereo not shown) [Example 890, N-(1-Cyanopiperidin-3-yl)-5-(2-methyl-4-phenoxyphenyl)-4-oxo-4,5-dihydro-3H-1-thia-3,5,8-triazaacenaphthylene-2-carboxamide]
7.3	C=CC(=O)N1CCC[C@H](NC(=O)c2sc3nccc4c3c2NC(=O)N4c2ccc(Oc3ccccc3)cc2C)C1 [Example 863, (S)—N-(1-Acryloylpiperidin-3-yl)-5-(2-methyl-4-phenoxyphenyl)-4-oxo-4,5-dihydro-3H-1-thia-3,5,8-triazaacenaphthylene-2-carboxamide]
7.4	C=CC(=O)N1CC[C@@H](NC(=O)c2sc3nccc4c3c2NC(=O)N4c2ccc(Oc3ccccn3)cc2C)C1 [Example 781, (R)—N-(1-Acryloylpyrrolidin-3-yl)-5-(2-methyl-4-(pyridin-2-yloxy)phenyl)-4-oxo-4,5-dihydro-3H-1-thia-3,5,8-triazaacenaphthylene-2-carboxamide]
6.2	Cc1cc(OC(C)C)ccc1N1C(=O)Nc2c(C(=O)N[C@@H]3CCCN(C(=O)/C=C/CN4C[C@@H]5OCCO[C@@H]5C4)C3)sc3nccc1c23 [Example 608, 5-(4-Isopropoxy-2-methylphenyl)-4-oxo-N—((R)-1-((E)-4-((4aR,7aS)-tetrahydro-2H-[1,4]dioxino[2,3-c]pyrrol-6(3H)-yl)but-2-enoyl)piperidin-3-yl)-4,5-dihydro-3H-1-thia-3,5,8-triazaacenaphthylene-2-carboxamide]

Same assay, conditions: Lanthascreen tracer competition, 60 minutes incubation; pIC50 = negative log of the IC50 in molar; read-out: BTK_I_binding pIC50 (converted)

IC50	SMILES
794 nM	O=C(N[C@@H]1CCCNC1)c1sc2nccc3c2c1NC(=O)N3c1cc(-c2ccccc2)ncn1 [Example 723, (R)-4-Oxo-5-(6-phenylpyrimidin-4-yl)-N-(piperidin-3-yl)-4,5-dihydro-3H-1-thia-3,5,8-triazaacenaphthylene-2-carboxamide]
794 nM	O=C(N[C@@H]1CCNC[C@H]1O)c1sc2nccc3c2c1NC(=O)N3c1ccc(Oc2ccccc2)cc1 (relative stereo) [Example 615, N-(trans-3-Hydroxypiperidin-4-yl)-4-oxo-5-(4-phenoxyphenyl)-4,5-dihydro-3H-1-thia-3,5,8-triazaacenaphthylene-2-carboxamide]
200 nM	C=CC(=O)N1CCCC(C(=O)Nc2sc3nccc4c3c2NC(=O)N4c2ccc(Oc3ccccc3)cc2C)C1 (stereo not shown) [Example 788, 1-Acryloyl-N-(5-(2-methyl-4-phenoxyphenyl)-4-oxo-4,5-dihydro-3H-1-thia-3,5,8-triazaacenaphthylen-2-yl)piperidine-3-carboxamide]

Same assay, conditions: pIC50 = negative log of the IC50 in molar; 60 minutes incubation, 50 nM Tracer 236

BTK_I_binding pIC50	SMILES
7.1	C/C=C/C(=O)N1CCC[C@@H](NC(=O)c2sc3nccc4c3c2NC(=O)N4c2ccc(Oc3ccccc3)cc2C)C1 (single isomer, unassigned) [Example 100, (R,E)-N-(1-(But-2-enoyl)piperidin-3-yl)-5-(*S)-(2-methyl-4-phenoxyphenyl)-4-oxo-4,5-dihydro-3H-1-thia-3,5,8-triazaacenaphthylene-2-carboxamide]
7.5	CCC(=O)N1CC[C@@H](NC(=O)c2sc3nccc4c3c2NC(=O)N4c2ccc(Oc3ccccc3)cc2C)C1 (single isomer, unassigned) [Example 84, (R)-5-(*S)-(2-Methyl-4-phenoxyphenyl)-4-oxo-N-(1-propionylpyrrolidin-3-yl)-4,5-dihydro-3H-1-thia-3,5,8-triazaacenaphthylene-2-carboxamide]
6.4	CC(C)=C(F)C(=O)N1CCC[C@@H](NC(=O)c2sc3nccc4c3c2NC(=O)N4c2ccc(Oc3ccccc3)cc2C)C1 [Example 263, (R)—N-(1-(2-Fluoro-3-methylbut-2-enoyl)piperidin-3-yl)-5-(2-methyl-4-phenoxyphenyl)-4-oxo-4,5-dihydro-3H-1-thia-3,5,8-triazaacenaphthylene-2-carboxamide]
6.4	C=CC(=O)N1CCC[C@@H](NC(=O)c2sc3nccc4c3c2NC(=O)N4c2ccccc2)C1 [Example 257, (R)—N-(1-Acryloylpiperidin-3-yl)-4-oxo-5-phenyl-4,5-dihydro-3H-1-thia-3,5,8-triazaacenaphthylene-2-carboxamide]
7.2	Cc1cc(Oc2ccccc2)ccc1N1C(=O)Nc2c(C(=O)N[C@@H]3CCCN(C(=O)CCO)C3)sc3nccc1c23 [Example 75, (R)—N-(1-(3-Hydroxypropanoyl)piperidin-3-yl)-5-(2-methyl-4-phenoxyphenyl)-4-oxo-4,5-dihydro-3H-1-thia-3,5,8-triazaacenaphthylene-2-carboxamide]
6.9	C=CC(=O)N1CC[C@@H](NC(=O)c2sc3nccc4c3c2NC(=O)N4c2ccc(Oc3ccccc3)c(C)c2C)C1 [Example 77, (R)—N-(1-Acryloylpyrrolidin-3-yl)-5-(2,3-dimethyl-4-phenoxyphenyl)-4-oxo-4,5-dihydro-3H-1-thia-3,5,8-triazaacenaphthylene-2-carboxamide]
7.6	COCCC(=O)N1C[C@@H](F)[C@@H](NC(=O)c2sc3nccc4c3c2NC(=O)N4c2ccc(Oc3ccccc3)cc2C)C1 [Example 94, N-((3S,4R)-4-Fluoro-1-(3-methoxypropanoyl)pyrrolidin-3-yl)-5-(2-methyl-4-phenoxyphenyl)-4-oxo-4,5-dihydro-3H-1-thia-3,5,8-triazaacenaphthylene-2-carboxamide]
7.2	Cc1cc(Oc2ccccc2)ccc1N1C(=O)Nc2c(C(=O)N[C@H]3CN(C)C[C@H]3F)sc3nccc1c23 [Example 132, N-((3S,4R)-4-Fluoro-1-methylpyrrolidin-3-yl)-5-(2-methyl-4-phenoxyphenyl)-4-oxo-4,5-dihydro-3H-1-thia-3,5,8-triazaacenaphthylene-2-carboxamide]

Same assay, conditions: unphosphorylated-BTK kinase domain, 50 nM Tracer 236, 60 minutes; pIC50 = negative log of the IC50 in molar

BTK_I_binding pIC50	SMILES
7.2	CNCC(=O)N1CC[C@@H](NC(=O)c2sc3nccc4c3c2NC(=O)N4c2ccc(Oc3ccccc3)cc2C)C1 [Example 391, (R)-5-(2-Methyl-4-phenoxyphenyl)-N-(1-(2-(methylamino)acetyl)pyrrolidin-3-yl)-4-oxo-4,5-dihydro-3H-1-thia-3,5,8-triazaacenaphthylene-2-carboxamide]
6.0	Cc1cc(Oc2ccccc2)ccc1N1C(=O)Nc2c(C(=O)N[C@H]3CCCCN(Cc4ccccc4)C3=O)sc3nccc1c23 [Example 309, (S)—N-(1-Benzyl-2-oxoazepan-3-yl)-5-(2-methyl-4-phenoxyphenyl)-4-oxo-4,5-dihydro-3H-1-thia-3,5,8-triazaacenaphthylene-2-carboxamide]
6.1	Cc1cc(Oc2ccccc2)ccc1N1C(=O)Nc2c(C(=O)NCCN3CCOC[C@@H]3C)sc3nccc1c23 [Example 291, (S)-5-(2-Methyl-4-phenoxyphenyl)-N-(2-(3-methylmorpholino)ethyl)-4-oxo-4,5-dihydro-3H-1-thia-3,5,8-triazaacenaphthylene-2-carboxamide]
7.2	Cc1cc(Oc2ccccc2)ccc1N1C(=O)Nc2c(C(=O)N[C@@H]3CCCN(C(=O)/C=C/CNS(C)(=O)=O)C3)sc3nccc1c23 [Example 383, (R,E)-5-(2-Methyl-4-phenoxyphenyl)-N-(1-(4-(methylsulfonamido)but-2-enoyl)piperidin-3-yl)-4-oxo-4,5-dihydro-3H-1-thia-3,5,8-triazaacenaphthylene-2-carboxamide]

Same assay, conditions: unphosphorylated-BTK kinase domain, 50 nM Tracer 236, 60 minutes; pIC50 = negative log of the IC50 in molar; read-out: BTK_I_binding pIC50 (converted)

IC50	SMILES
3160 nM	CC(C)Oc1ccc(N2C(=O)Nc3c(C(=O)N[C@@H]4CCCNC4)sc4nccc2c34)cc1 [Example 405, (R)-5-(4-Isopropoxyphenyl)-4-oxo-N-(piperidin-3-yl)-4,5-dihydro-3H-1-thia-3,5,8-triazaacenaphthylene-2-carboxamide]
158 nM	C=CC(=O)N1CC[C@@H](NC(=O)c2sc3nccc4c3c2NC(=O)N4c2ccc(Oc3ccccc3)cc2)[C@@H](O)C1 [Example 574]

Same assay, conditions: unphosphorylated-BTK kinase domain, 60 minutes incubation, 50 nM Tracer 236; pIC50 = negative log of the IC50 in molar

BTK_I_binding pIC50	SMILES
5.6	C=CC(=O)N1CCC[C@@H](NC(=O)c2sc3nccc4c3c2NC(=O)N4c2cccc(N(C)C)c2)C1 [Example 943, (R)—N-(1-Acryloylpiperidin-3-yl)-5-(3-(dimethylamino)phenyl)-4-oxo-4,5-dihydro-3H-1-thia-3,5,8-triazaacenaphthylene-2-carboxamide]
6.5	Cc1cc(OC(C)C)ccc1N1C(=O)Nc2c(C(=O)N[C@@H]3CCCN(C(=O)/C=C/CN(C)C)C3)sc3nccc1c23 [Example 913, (R,E)-N-(1-(4-(Dimethylamino)but-2-enoyl)piperidin-3-yl)-5-(4-isopropoxy-2-methylphenyl)-4-oxo-4,5-dihydro-3H-1-thia-3,5,8-triazaacenaphthylene-2-carboxamide]
6.3	Cc1cc(Oc2ccccc2)ccc1N1C(=O)Nc2c(C(=O)NC3CCN(C(=O)/C(C#N)=C/C(C)(C)C)CC3)sc3nccc1c23 [Example 921, (E)-N-(1-(2-Cyano-4,4-dimethylpent-2-enoyl)piperidin-4-yl)-5-(2-methyl-4-phenoxyphenyl)-4-oxo-4,5-dihydro-3H-1-thia-3,5,8-triazaacenaphthylene-2-carboxamide]
